Measurements taken from ChEMBL document CHEMBL3046777, “Synthesis of new phenylcarbamoylbenzoic acid derivatives and evaluation of their in vitro antioxidant activity” (Med Chem Res, 2012).

Assay: Antioxidant activity assessed as […] by ABTS-spectrophotometric assay
Format: functional
Design: concentration or dose not given beside the values
Conditions: dose or concentration not given here

Compared with COc1ccc(/C=N/N=C(\C)c2ccc(NC(=O)c3ccccc3C(=O)O)cc2)cc1, C/C(=N\N=C\c1ccc(Cl)cc1)c1ccc(NC(=O)c2ccccc2C(=O)O)cc1 is higher in inhibition: 23% for the first, 24.8% for the second.

Compared with C/C(=N\N)c1ccc(NC(=O)c2ccccc2C(=O)O)cc1, CC(=O)c1ccc(NC(=O)c2ccccc2C(=O)O)cc1 is lower in inhibition: 18.2% for the first, 7.42% for the second.

First: O=C(NN1C(=O)c2ccccc2C1=O)c1ccc(NC(=O)c2ccccc2C(=O)O)cc1
Second: C/C(=N\N1C(=O)c2ccccc2C1=O)c1ccc(NC(=O)c2ccccc2C(=O)O)cc1
The inhibition of the first is higher: 8.39% for the first, 4.19% for the second.

Going from COc1ccc(/C=N/NC(=O)c2ccc(NC(=O)c3ccccc3C(=O)O)cc2)cc1 to O=C(N/N=C/c1ccc(Cl)cc1)c1ccc(NC(=O)c2ccccc2C(=O)O)cc1, the inhibition rises from 4.29% to 19.5%.

First: NNC(=O)c1ccc(NC(=O)c2ccccc2C(=O)O)cc1
Second: CCOC(=O)c1ccc(NC(=O)c2ccccc2C(=O)O)cc1
The inhibition of the first is higher: 55.2% for the first, 4.09% for the second.

First: C/C(=N\N=C\c1ccccc1)c1ccc(NC(=O)c2ccccc2C(=O)O)cc1
Second: O=C(N/N=C/c1ccccc1)c1ccc(NC(=O)c2ccccc2C(=O)O)cc1
The inhibition of the first is higher: 12.9% for the first, 8.78% for the second.

Going from C/C(=N\NC(=O)c1ccc(NC(=O)c2ccccc2C(=O)O)cc1)c1ccccc1 to C/C(=N\N=C(/C)c1ccc(NC(=O)c2ccccc2C(=O)O)cc1)c1ccccc1, the inhibition rises from 2.63% to 9.85%.

First: C/C(=N\N=C(/C)c1ccc(NC(=O)c2ccccc2C(=O)O)cc1)c1ccc(NC(=O)c2ccccc2C(=O)O)cc1
Second: C/C(=N\NC(=O)c1ccc(NC(=O)c2ccccc2C(=O)O)cc1)c1ccc(NC(=O)c2ccccc2C(=O)O)cc1
The inhibition of the first is higher: 10.6% for the first, 9.95% for the second.
